Measurements as given in patent US20190369111A1, “MOLECULAR KINETICS EVALUATION METHOD AND SCREENING METHOD” (Tokyo University of Science Foundation, priority 2016, published 2019).

Biological target: T1, wild-type p53 protein (Mus musculus, UniProt P02340)
T1 construct: administered intraperitoneally to C57BL/6J wild-type mice; from tissue; host or cells: C57BL/6J wild-type mice: liver, kidneys, spleen, heart
Experiment: Degradation of wild-type p53 protein in each tissue of mouse after administration, Western blot analysis
Type: in vivo
Protocol: TIBC-CANDDY_MLN was dissolved in DMSO immediately before administration, and then dissolved in corn oil (Code No. 25606-55, Nacalai Tesque) so that the concentration of DMSO was 10 vol %, and then a dose of 50 mg/kg body weight or 100 mg/kg body weight was administered intraperitoneally to C57BL/6J wild-type mice (7 to 8 weeks old, male) (CLEA Japan, Inc.) (n=3). As a control, an injection carrier (corn oil containing 10 vol % DMSO) was used. The mice were kept under an environment of ad libitum access to food and water. The mice were dissected under deep anesthesia by Somnopentyl (Kyoritsu Seiyaku Corporation) 48 hours after administration. Abdominal section was performed, and then the liver, kidneys, spleen, and heart were sequentially extracted and flash frozen in liquid nitrogen. Each tissue frozen in liquid nitrogen was stored in a deep freezer at −80° C.
The frozen tissues (spleen: 0.02 g, other tissues: 0.04 g) were each frozen and triturated, and then 1×TKM tissue lysis buffer (50 mM triethanolamine (pH 7.8), 50 mM KCl, 5 mM MgCl2, 0.25 M sucrose, 1 mM PMSF, protein inhibitors cocktail-EDTA free (Code No. 03969-21, Nacalai Tesque), 1 mM DTT, and 5 μL/mL recombinant RNase inhibitor (40 U/μL, Cat No. 2313A, Lot No. K8402DA, TAKARA Bio)) were added in an amount of 490 μL for the spleen and 980 μL for the others, and dissolved by rotation for 15 minutes (1 rpm, 25° C.). Then, the resultant product was subjected to centrifugation (at 3000 rpm×15 minutes, 4° C.), and the supernatants (each tissue extract) was collected. The concentration of proteins in each tissue extract was quantified with a spectrophotometer using each tissue extract that had been diluted 20 times using DEPC-treated water.
Each tissue extract collected was subjected to Western blot analysis. An SDS-PAGE gel was prepared using TGX™ FastCast™ Acrylamide Kit, 12% (Bio-Rad). Electrophoresis samples were prepared in a 6×SDS-PAGE sample buffer (62.5 mM Tris-HCl pH 6.8, 2% SDS, 5% 2-mercaptoethanol, 10% glycerol, 0.25% BPB), and placed on a heat block at 95° C. for 5 minutes. The electrophoresis samples prepared were applied at 50 μg/well for detecting GAPDH, and at 100 μg/well for other detection. Electrophoresis was performed at 160 V for 60 minutes (electrophoresis buffer; 195 mM glycine, 25 mM Tris).
After electrophoresis, proteins were transferred to a PVDF membrane (Immobion™-P, Millipore) under conditions of 100 V and 1.5 hours using a tank-type blotting device and a transfer buffer (25 mM Tris-HCl, 195 mM glycine, 0.01% SDS, 15% methanol). The membrane was split into two at the position of a 25 kDa marker. The membrane after transfer was shaken and blocked in 5% skim milk/TBS-T (100 mM Tris-HCl, 150 mM NaCl, 0.1% Tween-20, pH 7.6) at room temperature for 30 minutes. After blocking, a primary antibody reaction was performed in 5% skim milk/TBS-T. As the primary antibody, an anti-p53 antibody (MAB1355, R&D Systems, Inc., diluted 500 times), an anti-MDM2 antibody (sc-965, SantaCruz, diluted 500 times), and an anti-GAPDH antibody (sc-32233, SantaCruz, diluted 20000 times) were used. The membrane was shaken at room temperature for 60 minutes, and then the membrane was washed with TBS-T for 5 minutes. […] Subsequently, the membrane was treated with a chemiluminescence reagent Immobilon™ Western (Millipore), and then chemiluminescence was detected using a lumino image analyzer LAS-3000 (FUJIFILM Corporation). Detected bands were quantified with an image processing software ImageJ (NIH).

T1 sequence (P02340 whole entry): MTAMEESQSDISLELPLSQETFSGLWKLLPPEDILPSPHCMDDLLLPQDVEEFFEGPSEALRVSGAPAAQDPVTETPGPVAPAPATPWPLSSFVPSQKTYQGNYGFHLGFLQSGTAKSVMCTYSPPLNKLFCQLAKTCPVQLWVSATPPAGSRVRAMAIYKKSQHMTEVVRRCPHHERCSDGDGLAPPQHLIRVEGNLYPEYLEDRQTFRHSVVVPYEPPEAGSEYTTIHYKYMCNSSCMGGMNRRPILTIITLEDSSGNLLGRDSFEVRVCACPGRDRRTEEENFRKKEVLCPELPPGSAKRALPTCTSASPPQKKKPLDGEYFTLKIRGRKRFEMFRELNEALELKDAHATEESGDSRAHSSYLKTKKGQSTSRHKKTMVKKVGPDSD

- amount of wild-type p53 protein in kidneys (intraperitoneal 50 or 100 mg/kg body weight, 48 hours after administration, kidneys): reduction of the target was not found
- amount of wild-type p53 protein in liver (intraperitoneal, only at a dose of 100 mg/kg body weight, 48 hours after administration, liver): reduced slightly
SMILES: CC(C)C[C@H](NC(=O)CNC(=O)c1cc(Cl)ccc1Cl)C(=O)NCCCCCCC(=O)Nc1ccc(C(=O)/C=C/c2ccc(I)cc2)cc1 [TIBC-CANDDY_MLN]
- amount of wild-type p53 protein in heart (intraperitoneal 50 or 100 mg/kg body weight, 48 hours after administration, heart): reduced in a concentration dependent manner
- amount of wild-type p53 protein in spleen (intraperitoneal 50 or 100 mg/kg body weight, 48 hours after administration, spleen): reduced in a concentration dependent manner
- transfer property to tissues (molecular kinetics) (suggested from p53 and MDM2 degradation in tissues): showed a higher transfer property to the heart, liver, and spleen as compared with the kidneys
